This assay concerns SUM149PT. In words: Cytotoxicity against human triple negative SUM149PT cells assessed as cell viability measured by MTS assay. It counts as functional, cell-based. (Formazan colour is commonly taken as a measure of viable cells.)
The term IC50 denotes the concentration at which inhibition is half-maximal. `CCCCc1nc(-c2ccc(OCCCN(CC)CC)cc2)nn1-c1ccc(-c2ccc(C(=O)OCC)cc2)cc1`: the half-maximal inhibitory concentration (IC50) is 328 nM. Turning to `CCCCc1nc(-c2ccc(OCCCN(CC)CC)cc2)nn1-c1ccc(-c2ccc(Cl)cc2)cc1`, the IC50 came out at 220 nM. Then `CCCCc1nc(-c2ccc(OCCCN(CC)CC)cc2)nn1-c1ccc(-c2ccc(OC(F)(F)F)cc2)cc1`, with 664 nM.

In the case of `CCCCc1nc(-c2ccc(OCCCN(CC)CC)cc2)nn1-c1ccc(-c2ccc(C)cc2)cc1`, the half-maximal inhibitory concentration (IC50) is 267 nM. Regarding `CCCCc1nc(-c2ccc(OCCCN(CC)CC)cc2)nn1-c1ccc(-c2ccc(C#N)cc2)cc1`, the IC50 came out at 5430 nM. With `CCCCc1nc(-c2ccc(OCCCN(CC)CC)cc2)nn1-c1ccc(Oc2ccc(Cl)cc2)cc1` the figure was 6300 nM; with `CCCCOc1ccc(-c2nc(CCCC)n(-c3ccc(Oc4ccc(Cl)cc4)cc3)n2)cc1`, 16000 nM; with `CCCCc1nc(-c2ccc(OCCCN(CC)CC)cc2)nn1-c1ccc(Oc2ccccc2)cc1`, 538 nM.

In the case of `CCCCc1nc(-c2ccc(OCCOCC)cc2)nn1-c1ccc(Oc2ccc(Cl)cc2)cc1`, the half-inhibitory concentration (IC50) was 18600 nM. With `CCCCc1nc(-c2ccc(OCCCN(CC)CC)cc2)nn1-c1ccc(-c2ccnn2C)cc1` the figure was 665 nM. With `CCCCc1nc(-c2ccc(OCCCN(CC)CC)cc2)nn1-c1ccc(-c2ccc(OC)cc2)cc1` the figure was 588 nM; with `CCN(CC)CCCOc1ccc(-c2nc(CCOC)n(-c3ccc(Oc4ccc(Cl)cc4)cc3)n2)cc1`, 12500 nM. In the case of `CCCCc1nc(-c2ccc(OCCC)cc2)nn1-c1ccc(Oc2ccccc2)cc1`, the IC50 came out at 13700 nM. With `CCCCc1nc(-c2ccc(OCCN3CCCCC3)cc2)nn1-c1ccc(Oc2ccc(Cl)cc2)cc1` the figure was 5680 nM; with `CCCCc1nc(-c2ccc(OCCCN(CC)CC)cc2)nn1-c1ccc(-c2ccc(OC)cc2OC)cc1`, 487 nM. Then `CCCCc1nc(-c2ccc(OCCCN(CC)CC)cc2)cn1-c1ccc(Oc2ccc(Cl)cc2)cc1` [AZELIRAGON], with 5290 nM.

Values taken from ChEMBL document CHEMBL5032533, “Design, synthesis and anti-TNBC activity of Azeliragon triazole analogues” (Bioorg Med Chem Lett, 2021).
